This is an account of results in PubChem BioAssay (NCI).

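Briefly, cells in 96-well plates were exposed to five compound concentrations for 48 h, and endpoints were estimated by linear interpolation. TGI is the concentration that stops growth completely.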

Some test systems named below: 786-0 renal; ACHN renal; HL-60(TB) leukemia; HS 578T breast; KM12 colon; MALME-3M melanoma; MDA-MB-435; MOLT-4 leukemia; NCI-H226 lung; NCI-H460 lung; NCI-H522 lung; NCI/ADR-RES ovarian; OVCAR-3 ovarian; OVCAR-5 ovarian; RXF 393 renal; SF-268 CNS; SK-OV-3 ovarian; SN12C renal; SW-620 colon.
Holding throughout (assay): NCI tumour cell line growth inhibition, 48 h

On to `C[C@@H](C[C@H]1OC(C)(C)O[C@@H]1C(C)(C)O)[C@H]1CC=C2[C@]3(C)[C@H](O)C[C@H]4C(C)(C)[C@H](O)CC[C@]4(C)[C@H]3CC[C@]21C`, for which the TGI stood at 18.5 µM in the assay with 786-0 renal; 15.8 µM in the assay with ACHN renal; 7.88 µM with HL-60(TB) leukemia; 16.6 µM in the assay with HS 578T breast; 16 µM in the assay with KM12 colon; 26.3 µM in the assay on MALME-3M melanoma. For the same molecule, the TGI came out at 17.7 µM in the assay on MDA-MB-435; 14.7 µM with MOLT-4 leukemia; 20.6 µM with NCI-H226 lung; 14.2 µM in the assay with NCI-H460 lung; 20.9 µM in the assay with NCI-H522 lung; 21.9 µM in the assay with NCI/ADR-RES ovarian. In addition, the TGI with OVCAR-3 ovarian is 15.4 µM; in the assay with OVCAR-5 ovarian it was 17.1 µM; in the assay on RXF 393 renal it was 12.1 µM; in the assay on SF-268 CNS it was 31.4 µM; in the assay on SK-OV-3 ovarian, 20.6 µM; in the assay on SN12C renal, 6.51 µM. The same molecule had a TGI in the assay on SW-620 colon of 19.4 µM.
With `Cc1nc2ccc(S(=O)(=O)NS(=O)(=O)c3ccc(-c4ccccc4)cc3)cc2c(=O)n1NS(=O)(=O)c1ccc(-c2ccccc2)cc1`, the TGI with 786-0 renal, in the assay on ACHN renal, with HL-60(TB) leukemia, in the assay with HS 578T breast, with KM12 colon and with MALME-3M melanoma was greater than 100 µM throughout. The TGI in the assay on MDA-MB-435, in the assay with MOLT-4 leukemia, in the assay on NCI-H226 lung, in the assay on NCI-H460 lung, in the assay on NCI-H522 lung and in the assay with NCI/ADR-RES ovarian was greater than 100 µM throughout. The TGI in the assay on OVCAR-3 ovarian, in the assay on OVCAR-5 ovarian, with RXF 393 renal, in the assay on SF-268 CNS, in the assay on SK-OV-3 ovarian and with SN12C renal was greater than 100 µM each time. The molecule further had a TGI in the assay on SW-620 colon greater than 100 µM.
In the case of `O=c1[nH]c(SCc2cccc([N+](=O)[O-])c2)nc2nc[nH]c12`, the TGI in the assay with 786-0 renal, with ACHN renal, in the assay with HL-60(TB) leukemia, in the assay on HS 578T breast, with KM12 colon and in the assay with MALME-3M melanoma was greater than 100 µM in each case. The TGI in the assay on MDA-MB-435, in the assay on MOLT-4 leukemia, in the assay on NCI-H226 lung, in the assay on NCI-H460 lung, in the assay on NCI-H522 lung and in the assay with NCI/ADR-RES ovarian was greater than 100 µM in each case. In addition, the TGI in the assay on OVCAR-3 ovarian, in the assay with OVCAR-5 ovarian, in the assay on RXF 393 renal, in the assay with SF-268 CNS, in the assay with SK-OV-3 ovarian and in the assay on SN12C renal was greater than 100 µM each time. In the assay on SW-620 colon, this molecule displayed a TGI greater than 100 µM.
`COc1cc(C(=O)Oc2c(C(C)=O)sc3c2c(=O)n(-c2ccccc2)c(=S)n3-c2ccccc2)cc(OC)c1OC`: the TGI came out at 55.2 µM in the assay with 786-0 renal; 66 µM in the assay with ACHN renal; 49.7 µM in the assay on HL-60(TB) leukemia; 74.4 µM with HS 578T breast; 50.8 µM in the assay on KM12 colon; 27.8 µM in the assay on MALME-3M melanoma. Further, the TGI in the assay on MDA-MB-435 amounted to 54.8 µM; in the assay on MOLT-4 leukemia, 50.5 µM; with NCI-H226 lung it was 25.9 µM; in the assay on NCI-H460 lung it was 29.8 µM; in the assay on NCI-H522 lung, 4.53 µM; with NCI/ADR-RES ovarian, 43.5 µM. For the same molecule, the TGI in the assay with OVCAR-3 ovarian was 62.2 µM; in the assay with OVCAR-5 ovarian, 43.2 µM; in the assay on RXF 393 renal it was 41.6 µM; in the assay on SF-268 CNS it was 77.4 µM; with SK-OV-3 ovarian, greater than 100 µM; in the assay with SN12C renal, 27.4 µM. This molecule also gave a TGI with SW-620 colon of 68.4 µM.
Take `COc1cc(C2c3cc4c(cc3OC(NNS(=O)(=O)c3ccc(C)cc3)C2C)OCO4)cc(OC)c1OC` (stereo not drawn): the TGI is 31.5 µM with 786-0 renal; greater than 52 µM in the assay on ACHN renal; 6.59 µM in the assay with HL-60(TB) leukemia; 15.2 µM with HS 578T breast; 32.3 µM in the assay on KM12 colon; greater than 60.8 µM in the assay on MALME-3M melanoma. Moreover, the TGI with MDA-MB-435 is 2.25 µM; in the assay with MOLT-4 leukemia, greater than 100 µM; in the assay with NCI-H226 lung, 13.2 µM; with NCI-H460 lung it was 12.4 µM; in the assay on NCI-H522 lung, 4.87 µM; in the assay on NCI/ADR-RES ovarian it was greater than 100 µM. Besides, the TGI with OVCAR-3 ovarian is 7.78 µM; in the assay with OVCAR-5 ovarian, greater than 100 µM; in the assay with RXF 393 renal, 23.8 µM; in the assay with SF-268 CNS, greater than 70.5 µM; in the assay with SK-OV-3 ovarian, greater than 70.6 µM; with SN12C renal, greater than 71.4 µM. In the assay with SW-620 colon, this molecule gave a TGI greater than 100 µM.
Consider `NC(=O)CSc1c2cc(O)ccc2nc2ccc(O)cc12`, for which the TGI in the assay with 786-0 renal, in the assay with ACHN renal, in the assay with HL-60(TB) leukemia, in the assay on HS 578T breast, with KM12 colon and in the assay with MALME-3M melanoma was greater than 10 µM throughout. The TGI with MDA-MB-435, in the assay with MOLT-4 leukemia, in the assay on NCI-H226 lung, in the assay on NCI-H460 lung, in the assay with NCI-H522 lung and in the assay on NCI/ADR-RES ovarian was greater than 10 µM in each case. Further, the TGI with OVCAR-3 ovarian, in the assay on OVCAR-5 ovarian, in the assay on RXF 393 renal, in the assay with SF-268 CNS, in the assay on SK-OV-3 ovarian and in the assay on SN12C renal was greater than 10 µM in each case. In addition, the TGI in the assay on SW-620 colon is greater than 10 µM.
As for `CC(=O)O[C@H]1CC[C@@]2(C)C(=CC[C@@H]3[C@@H]2CC[C@]2(C)c4c(n[nH]c4C)C[C@@H]32)C1`, the TGI in the assay on 786-0 renal amounted to 35.1 µM; in the assay on ACHN renal it was 43.5 µM; with HL-60(TB) leukemia it was 28.4 µM; in the assay with HS 578T breast, 48 µM; in the assay with KM12 colon, 37.4 µM; in the assay with MALME-3M melanoma, 12.7 µM. For the same molecule, the TGI is 33.9 µM with MDA-MB-435; 53.4 µM in the assay on MOLT-4 leukemia; 35.2 µM with NCI-H226 lung; 32.4 µM in the assay on NCI-H460 lung; 23 µM in the assay on NCI-H522 lung; 85.1 µM with NCI/ADR-RES ovarian. For the same molecule, the TGI in the assay on OVCAR-3 ovarian was 26.2 µM; with OVCAR-5 ovarian it was 31.1 µM; with RXF 393 renal, 23.9 µM; in the assay with SF-268 CNS it was 48.7 µM; in the assay on SK-OV-3 ovarian, 46.1 µM; with SN12C renal it was 45.5 µM. The same molecule registered a TGI in the assay on SW-620 colon greater than 100 µM.
